# Tests used:
# [1] = test system: influenza A/PR/8/34 (PR8); details: ref Shirey et al., 2013; cited from earlier work
# TLR7 = test: R848; format: cell-based, mouse; details: murine macrophages; R848 (2.85 μM); Figure 2E, F
# [2] = target: NF-kB activator 1 CC loop decoy peptide SEFIR CC loop (Homo sapiens) (UniProt O43734); test: SPR; details: cited from earlier work
# IL-17RA, sequence (Q96F46 33-866): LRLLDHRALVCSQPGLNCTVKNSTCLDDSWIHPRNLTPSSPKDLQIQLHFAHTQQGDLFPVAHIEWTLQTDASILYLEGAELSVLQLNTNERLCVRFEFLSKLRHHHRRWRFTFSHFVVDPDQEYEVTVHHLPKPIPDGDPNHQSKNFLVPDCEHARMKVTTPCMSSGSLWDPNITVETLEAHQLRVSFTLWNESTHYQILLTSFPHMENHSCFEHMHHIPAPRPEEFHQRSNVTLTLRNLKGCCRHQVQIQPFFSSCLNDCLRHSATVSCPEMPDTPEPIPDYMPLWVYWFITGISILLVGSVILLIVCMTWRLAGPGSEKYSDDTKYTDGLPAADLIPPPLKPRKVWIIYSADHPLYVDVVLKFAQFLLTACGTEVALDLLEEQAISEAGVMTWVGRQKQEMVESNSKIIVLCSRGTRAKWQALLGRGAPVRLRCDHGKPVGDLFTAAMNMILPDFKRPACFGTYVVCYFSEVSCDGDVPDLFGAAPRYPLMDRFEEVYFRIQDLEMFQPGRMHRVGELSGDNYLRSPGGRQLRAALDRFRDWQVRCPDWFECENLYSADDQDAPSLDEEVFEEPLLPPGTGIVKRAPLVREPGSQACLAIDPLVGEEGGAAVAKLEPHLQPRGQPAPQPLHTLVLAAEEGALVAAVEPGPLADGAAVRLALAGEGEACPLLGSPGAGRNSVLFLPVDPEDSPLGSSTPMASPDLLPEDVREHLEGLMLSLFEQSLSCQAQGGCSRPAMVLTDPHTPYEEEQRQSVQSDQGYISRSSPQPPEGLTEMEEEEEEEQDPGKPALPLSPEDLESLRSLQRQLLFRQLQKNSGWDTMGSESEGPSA
compound,measurement,setting,value
CCCCCC/C=C\CCCCCCCCCC(=O)N[C@H]1[C@H](OC[C@H]2O[C@H](OP(=O)(O)O)[C@H](NC(=O)CC(=O)CCCCCCCCCCC)[C@@H](OCCCCCCCCCC)[C@@H]2O)O[C@H](COC)[C@@H](OP(=O)(O)O)[C@@H]1OCC[C@@H](CCCCCCC)OC [Eritoran],"Protection from PR8 infection, TLR2−/− mice",[1],could not be protected
same,"Protection from PR8 infection, mice",[1],protected mice from PR8 infection
CCOCc1nc2c(N)nc3ccccc3c2n1CC(C)(C)O [R848],Induction of TNF-α and IL-6,TLR7,induced robust production
IL-17RA (from UniProt Q96F46),Kd,[2],117 µM

# — publication PMC4490105 (Cell reports, 2015)
